Data reported in patent US12545639B2, “3-substituted phenylamidine compounds, preparation and use thereof” (PI INDUSTRIES LTD., priority 2019, dated 2026).

Key:
Pyricularia oryzae = experiment: microbe, parasite or virus in culture; assay type: cell-based; conditions: 168 h, read-out: control compared to the untreated check (radial growth)
Rhizoctonia solani = Rhizoctonia solani (rice sheath blight/potato black scurf) in vitro test, radial growth on potato dextrose agar; assay type: cell-based; conditions: 168 h, 300 ppm in potato dextrose agar, 25° C., 60% relative humidity, seven days, read-out: control compared to the untreated check (radial growth)
Botrytis cinerea = Botrytis cinerea (gray mold) in vitro test, radial growth on potato dextrose agar; assay type: cell-based; conditions: 168 h, 300 ppm in potato dextrose agar, 22° C., 90% relative humidity, seven days, read-out: control compared to the untreated check (radial growth)
Alternaria solani = Alternaria solani (early blight of tomato/potato) in vitro test, radial growth on potato dextrose agar; assay type: cell-based; conditions: 168 h, 300 ppm in potato dextrose agar, 25° C., 60% relative humidity, seven days, read-out: control compared to the untreated check (radial growth)
Colletotrichum capsici = Colletotrichum capsici (anthracnose) in vitro test, radial growth on potato dextrose agar; assay type: cell-based; conditions: Colletotrichum truncatum, 168 h; 300 ppm in potato dextrose agar; 25° C., 60% relative humidity, seven days; read-out: control compared to the untreated check (radial growth)
[1] = tested on: Septoria lycopersici/Corynespora cassicola (CORYCA); experiment: Septoria lycopersici/Corynespora cassicola (CORYCA) (leaf spot of tomato) in vitro test, radial growth on potato dextrose agar; assay type: cell-based; conditions: 168 h, 300 ppm in potato dextrose agar, 25° C., 70% relative humidity, seven days, read-out: control compared to the untreated check (radial growth)
Fusarium culmorum = Fusarium culmorum (foot rot of cereals) in vitro test, radial growth on potato dextrose agar; assay type: cell-based; conditions: 168 h, 300 ppm in potato dextrose agar, 25° C., 60% relative humidity, seven days, read-out: control compared to the untreated check (radial growth)
Method in brief: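 Compound in 0.3% DMSO mixed into potato dextrose agar, plates seeded with a 5 mm mycelial disc from an actively growing virulent culture. After seven days at 25° C and 60% relative humidity, radial growth was measured against untreated control.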

Phakopsora pachyrhizi = Phakopsora pachyrhizi test in soybean, preventive, in vivo on plants; conditions: in Glycine max, read-out: Efficacy (% control), disease severity compared to the untreated check

CCN(C)C=Nc1cc(Cl)cc(Cc2ccc(F)c(F)c2)c1C [Compound 129, N′-(5-chloro-3-(3,4-difluorobenzyl)-2-methylphenyl)-N-ethyl-N-methylformimidamide]
≥ 70%: inhibition of growth at 300 ppm (Pyricularia oryzae) | inhibition of growth at 300 ppm (Rhizoctonia solani) | inhibition of growth at 300 ppm (Botrytis cinerea) | inhibition of growth at 300 ppm (Alternaria solani) | inhibition of growth at 300 ppm (Colletotrichum capsici) | inhibition of growth at 300 ppm [1] | inhibition of growth at 300 ppm (Fusarium culmorum) | pest or weed control at 500 ppm (Phakopsora pachyrhizi)

CCN(C)C=Nc1cc(F)cc(Cc2ccc(F)cc2)c1C [Compound 204, N-ethyl-N′-(5-fluoro-3-(4-fluorobenzyl)-2-methylphenyl)-N-methylformimidamide]
≥ 70%: inhibition of growth at 300 ppm (Pyricularia oryzae) | inhibition of growth at 300 ppm (Rhizoctonia solani) | inhibition of growth at 300 ppm (Botrytis cinerea) | inhibition of growth at 300 ppm (Alternaria solani) | inhibition of growth at 300 ppm (Colletotrichum capsici) | inhibition of growth at 300 ppm [1] | inhibition of growth at 300 ppm (Fusarium culmorum) | pest or weed control at 500 ppm (Phakopsora pachyrhizi)

CCN(C)C=Nc1cc(C)cc(Cc2ccc(F)cc2)c1C [Compound 222, N-ethyl-N′-(3-(4-fluorobenzyl)-2,5-dimethylphenyl)-N-methylformimidamide]
≥ 70%: inhibition of growth at 300 ppm (Pyricularia oryzae) | inhibition of growth at 300 ppm (Rhizoctonia solani) | inhibition of growth at 300 ppm (Botrytis cinerea) | inhibition of growth at 300 ppm (Alternaria solani) | inhibition of growth at 300 ppm (Colletotrichum capsici) | inhibition of growth at 300 ppm [1] | inhibition of growth at 300 ppm (Fusarium culmorum) | pest or weed control at 500 ppm (Phakopsora pachyrhizi)

CCN(C)C=Nc1cc(F)cc(Cc2ccc(Br)cc2F)c1C [Compound 236, N′-(3-(4-bromo-2-fluorobenzyl)-5-fluoro-2-methylphenyl)-N-ethyl-N-methylformimidamide]
≥ 70%: inhibition of growth at 300 ppm (Pyricularia oryzae) | inhibition of growth at 300 ppm (Rhizoctonia solani) | inhibition of growth at 300 ppm (Botrytis cinerea) | inhibition of growth at 300 ppm (Alternaria solani) | inhibition of growth at 300 ppm (Colletotrichum capsici) | inhibition of growth at 300 ppm [1] | inhibition of growth at 300 ppm (Fusarium culmorum) | pest or weed control at 500 ppm (Phakopsora pachyrhizi)

CCN(C)C=Nc1cc(C)cc(Nc2ccc(Cl)cc2)c1Cl [Compound 59, N′-(2-chloro-3-((4-chlorophenyl)amino)-5-methylphenyl)-N-ethyl-N-methylformimidamide]
≥ 70%: inhibition of growth at 300 ppm (Pyricularia oryzae) | inhibition of growth at 300 ppm (Rhizoctonia solani) | inhibition of growth at 300 ppm (Botrytis cinerea) | inhibition of growth at 300 ppm (Alternaria solani) | inhibition of growth at 300 ppm (Colletotrichum capsici) | inhibition of growth at 300 ppm [1] | inhibition of growth at 300 ppm (Fusarium culmorum) | pest or weed control at 500 ppm (Phakopsora pachyrhizi)

CCN(C)C=Nc1cc(C)cc(Cc2ccccc2Cl)c1C [Compound 220, N′-(3-(2-chlorobenzyl)-2,5-dimethylphenyl)-N-ethyl-N-methylformimidamide]
≥ 70%: inhibition of growth at 300 ppm (Pyricularia oryzae) | inhibition of growth at 300 ppm (Rhizoctonia solani) | inhibition of growth at 300 ppm (Botrytis cinerea) | inhibition of growth at 300 ppm (Alternaria solani) | inhibition of growth at 300 ppm (Colletotrichum capsici) | inhibition of growth at 300 ppm [1] | inhibition of growth at 300 ppm (Fusarium culmorum) | pest or weed control at 500 ppm (Phakopsora pachyrhizi)

CCN(C)C=Nc1cc(C)cc(Cc2ccccc2Br)c1C [Compound 221, N′-(3-(2-bromobenzyl)-2,5-dimethylphenyl)-N-ethyl-N-methylformimidamide]
≥ 70%: inhibition of growth at 300 ppm (Pyricularia oryzae) | inhibition of growth at 300 ppm (Rhizoctonia solani) | inhibition of growth at 300 ppm (Botrytis cinerea) | inhibition of growth at 300 ppm (Alternaria solani) | inhibition of growth at 300 ppm (Colletotrichum capsici) | inhibition of growth at 300 ppm [1] | inhibition of growth at 300 ppm (Fusarium culmorum) | pest or weed control at 500 ppm (Phakopsora pachyrhizi)

CCN(C)C=Nc1cc(F)cc(Nc2ccc(C(C)(C)C)cc2)c1C [Compound 20, N′-(3-((4-(tert-butyl)phenyl)amino)-5-fluoro-2-methylphenyl)-N-ethyl-N-methylformimidamide]
≥ 70%: inhibition of growth at 300 ppm (Pyricularia oryzae) | inhibition of growth at 300 ppm (Rhizoctonia solani) | inhibition of growth at 300 ppm (Botrytis cinerea) | inhibition of growth at 300 ppm (Alternaria solani) | inhibition of growth at 300 ppm (Colletotrichum capsici) | inhibition of growth at 300 ppm [1] | inhibition of growth at 300 ppm (Fusarium culmorum) | pest or weed control at 500 ppm (Phakopsora pachyrhizi)

CCN(C)C=Nc1cc(C)cc(Cc2ccccc2)c1C [Compound 207, N′-(3-benzyl-2,5-dimethylphenyl)-N-ethyl-N-methylformimidamide]
≥ 70%: inhibition of growth at 300 ppm (Pyricularia oryzae) | inhibition of growth at 300 ppm (Rhizoctonia solani) | inhibition of growth at 300 ppm (Botrytis cinerea) | inhibition of growth at 300 ppm (Alternaria solani) | inhibition of growth at 300 ppm (Colletotrichum capsici) | inhibition of growth at 300 ppm [1] | inhibition of growth at 300 ppm (Fusarium culmorum) | pest or weed control at 500 ppm (Phakopsora pachyrhizi)

CCN(C)C=Nc1cc(F)cc(Nc2cc(F)cc(F)c2)c1C [Compound 77, N′-(3-((3,5-difluorophenyl)amino)-5-fluoro-2-methylphenyl)-N-ethyl-N-methylformimidamide]
≥ 70%: inhibition of growth at 300 ppm (Pyricularia oryzae) | inhibition of growth at 300 ppm (Rhizoctonia solani) | inhibition of growth at 300 ppm (Botrytis cinerea) | inhibition of growth at 300 ppm (Alternaria solani) | inhibition of growth at 300 ppm (Colletotrichum capsici) | inhibition of growth at 300 ppm [1] | inhibition of growth at 300 ppm (Fusarium culmorum) | pest or weed control at 500 ppm (Phakopsora pachyrhizi)

CCN(C)C=Nc1cc(C)cc(Cc2ccc(C)cc2)c1Cl [Compound 18, N′-(2-chloro-5-methyl-3-(4-methylbenzyl)phenyl)-N-ethyl-N-methylformimidamide]
≥ 70%: inhibition of growth at 300 ppm (Pyricularia oryzae) | inhibition of growth at 300 ppm (Rhizoctonia solani) | inhibition of growth at 300 ppm (Botrytis cinerea) | inhibition of growth at 300 ppm (Alternaria solani) | inhibition of growth at 300 ppm (Colletotrichum capsici) | inhibition of growth at 300 ppm [1] | inhibition of growth at 300 ppm (Fusarium culmorum) | pest or weed control at 500 ppm (Phakopsora pachyrhizi)

CCN(C)C=Nc1cc(C)cc(Cc2ccc(C)cc2)c1C [Compound 2, N′-(2,5-dimethyl-3-(4-methylbenzyl)phenyl)-N-ethyl-N-methylformimidamide]
≥ 70%: inhibition of growth at 300 ppm (Pyricularia oryzae) | inhibition of growth at 300 ppm (Rhizoctonia solani) | inhibition of growth at 300 ppm (Botrytis cinerea) | inhibition of growth at 300 ppm (Alternaria solani) | inhibition of growth at 300 ppm (Colletotrichum capsici) | inhibition of growth at 300 ppm [1] | inhibition of growth at 300 ppm (Fusarium culmorum)
